According to ChEMBL document CHEMBL6087402, “Design, synthesis, and in vitro and in vivo biological evaluation of dihydroartemisinin derivatives as potent anti-cancer agents with ferroptosis-inducing and apoptosis-activating properties” (Eur J Med Chem, 2025):
pIC50: −log10 of the molar value. Calls of active or inactive are those of the source. The calls are words filed in the database; no cut-off is given here.

Legend:
[1] = tested on: HCT-116; test: Induction of cell cycle arrest in human HCT-116 cells assessed as accumulation at S phase at 3 uM incubated for 72 hrs by PI staining based flow cytometry (reference value: 23.49 %); type: functional
[2] = tested on: HCT-116; test: Induction of apoptosis in human HCT-116 cells assessed as viable cells at 0.03 uM incubated for 72 hrs by Annexin V-FITC/PI staining based flow cytometry (reference value: 97.1 %); type: functional; settings: read-out: Activity
[3] = tested on: HCT-116; test: Induction of ferroptosis in human HCT-116 cells assessed as reduction in GPX4 level upto 3 uM incubated for 72 hrs by Western blot analysis; type: functional, cell-based
[4] = tested on: HCT-116; test: Antitumor activity against human HCT-116 cells xenografted in mouse assessed as reduction in nuclear-cytoplasmic ratio at 50 mg/kg, ip administered once in every 2 days for 21 days by H and E staining based analysis; type: functional, organism-based; settings: time 21.0 day
[5] = tested on: HCT-116; test: Induction of cell cycle arrest in human HCT-116 cells assessed as accumulation at S phase at 0.03 uM incubated for 72 hrs by PI staining based flow cytometry (reference value: 23.49 %); type: functional
[6] = tested on: HCT-116; test: Antitumor activity against human HCT-116 cells xenografted in mouse assessed as reduction in tumor cell mitotic figures at 50 mg/kg, ip administered once in every 2 days for 21 days by H and E staining based analysis; type: functional, organism-based; settings: time 21.0 day
[7] = tested on: HCT-116; test: Induction of oxidative stress in human HCT-116 cells assessed as increase in MDA level incubated for 24 hrs; type: functional, cell-based; settings: dose <= 3.0 µM
[8] = Toxicity in mouse xenografted with human HCT-116 cells assessed as body weight change at 50 mg/kg, ip administered once in every 2 days for 21 days; type: organism-based; settings: in vivo, 504 h, time 21 day
[9] = tested on: HCT-116; test: Induction of cell cycle arrest in human HCT-116 cells assessed as accumulation at G0/G1 phase at 3 uM incubated for 72 hrs by PI staining based flow cytometry (reference value: 80.71 %); type: functional
[10] = Toxicity in BALB/c mouse assessed as apparent damage in spleen at 100 mg/kg, ip administered continuously for 7 days by H and E staining based analysis; type: organism-based; settings: in vivo, 168 h, time 7 day
[11] = tested on: HCT-116; test: Induction of cell cycle arrest in human HCT-116 cells assessed as accumulation at S phase at 0.3 uM incubated for 72 hrs by PI staining based flow cytometry (reference value: 23.49 %); type: functional
[12] = tested on: HCT-116; test: Anti-proliferative activity against human HCT-116 cells assessed as reduction in total STAT3 level upto 3 uM incubated for 72 hrs by Western blot analysis; type: functional, cell-based
[13] = tested on: A549; test: Anti-proliferative activity against human A549 cells incubated for 72 hrs by MTT assay; type: functional, cell-based; settings: A549, 72 h
[14] = tested on: HCT-116; test: Induction of apoptosis in human HCT-116 cells assessed as late apoptotic cells at 0.3 uM incubated for 72 hrs by Annexin V-FITC/PI staining based flow cytometry (reference value: 0.98 %); type: functional
[15] = Toxicity in BALB/c mouse assessed as toxic effect upto 100 mg/kg, ip administered continuously for 7 days; type: organism-based; settings: in vivo, 168 h, time 7 day
[16] = tested on: HCT-116; test: Induction of mitochondrial membrane potential loss in human HCT-116 cells assessed as increase in green fluorescence incubated upto 3 uM by JC-1 dye based analysis; type: functional, cell-based
[17] = tested on: Bel-7402; test: Anti-proliferative activity against human Bel-7402 cells incubated for 72 hrs by MTT assay; type: functional, cell-based; settings: Bel-7402, 72 h
[18] = tested on: HCT-116; test: Induction of ferroptosis in human HCT-116 cells incubated for 72 hrs in presence of DFO by MTT assay; type: functional, cell-based
[19] = tested on: HCT-116; test: Induction of apoptosis in human HCT-116 cells in presence of Z-VAD-FMK; type: functional, cell-based
[20] = tested on: HCT-116; test: Induction of cell cycle arrest in human HCT-116 cells assessed as accumulation at G2/M phase at 0.3 uM incubated for 72 hrs by PI staining based flow cytometry (reference value: 15.79 %); type: functional
[21] = tested on: HCT-116; test: Induction of cell cycle arrest in human HCT-116 cells assessed as accumulation at G2/M phase at 0.03 uM incubated for 72 hrs by PI staining based flow cytometry (reference value: 15.79 %); type: functional
[22] = tested on: HCT-116; test: Induction of apoptosis in human HCT-116 cells assessed as late apoptotic cells at 3 uM incubated for 72 hrs by Annexin V-FITC/PI staining based flow cytometry (reference value: 0.98 %); type: functional
[23] = tested on: HCT-116; test: Induction of apoptosis in human HCT-116 cells assessed as viable cells at 3 uM incubated for 72 hrs by Annexin V-FITC/PI staining based flow cytometry (reference value: 97.1 %); type: functional; settings: read-out: Activity
[24] = tested on: HCT-116; test: Inhibition of colony formation in human HCT-116 cells incubated for 7 to 12 days by crystal violet staining based analysis; type: functional, cell-based; settings: dose <= 3.0 µM, time 7-12 day
[25] = tested on: HCT-116; test: Inhibition of colony formation in human HCT-116 cells at 3 uM incubated for 7 to 12 days by crystal violet staining based analysis relative to control; type: functional; settings: time 7-12 day
[26] = Toxicity in BALB/c mouse assessed as decrease in body weight at 100 mg/kg, ip administered continuously for 7 days; type: organism-based; settings: in vivo, 168 h, time 7 day
[27] = tested on: HCT-116; test: Induction of ferroptosis in human HCT-116 cells incubated for 72 hrs in presence of Fer-1 by MTT assay; type: functional, cell-based
[28] = Toxicity in BALB/c mouse assessed as change fur luster at 100 mg/kg, ip administered continuously for 7 days; type: organism-based; settings: in vivo, 168 h, time 7 day
[29] = tested on: HCT-116; test: Induction of cell cycle arrest in human HCT-116 cells assessed as accumulation at G0/G1 phase at 0.3 uM incubated for 72 hrs by PI staining based flow cytometry (reference value: 80.71 %); type: functional
[30] = Toxicity in BALB/c mouse assessed as apparent damage in liver at 100 mg/kg, ip administered continuously for 7 days by H and E staining based analysis; type: organism-based; settings: in vivo, 168 h, time 7 day

C[C@@H]1CC[C@H]2[C@@H](C)C(OC(=O)Nc3ccc(Cl)cc3)O[C@@H]3O[C@@]4(C)CC[C@H]1[C@]32OO4 (stereo not given in full)
Activity [1]: 23.71% | viability at 0.03 µM [2]: 93.3% | Activity [3]: Active | Activity [4]: Active | Activity [5]: 25.54% | Activity [6]: Active | Activity [7]: Dose-dependent-effect | Activity [8]: Non-toxic | Activity [9]: 42.97% | Activity [10]: Non-toxic | Activity [11]: 24.55% | Activity [12]: Active | pIC50 [13]: 6.00 | Activity [14]: 8.21% | Activity [15]: Non-toxic | Activity [16]: Active | pIC50 [17]: 5.08 | Activity [18]: inactive | Activity [19]: inactive | Activity [20]: 37.8% | Activity [21]: 25.25% | Activity [22]: 26.2% | viability at 3 µM [23]: 56.7% | inhibition [24]: Dose-dependent-effect | inhibition at 3 µM [25]: 62.1% | Activity [26]: Non-toxic | Activity [27]: inactive | Activity [28]: Non-toxic | Activity [29]: 37.62% | Activity [30]: Non-toxic
